Test results reported in publication PMC6844396, “Design, synthesis and biological evaluation of novel 1H-1,2,4-triazole, benzothiazole and indazole-based derivatives as potent FGFR1 inhibitors viafragment-based virtual screening” (Journal of Enzyme Inhibition and Medicinal Chemistry, 2019).

Tests used:
FGFR1 = FGFR1 (Homo sapiens, UniProt P11362); test: ELISA kinase assay, FGFR1; type: biochemical; conditions: for IC50: ELISA, average values from two separate experiments
Protocol: Elisa kinase assay. The effects of the indicated compounds on the activities of receptor tyrosine kinases were determined using enzyme-linked immunosorbent assays (ELISAs) with purified recombinant proteins. Briefly, 20 μg/mL poly (Glu,Tyr)4:1 (Sigma, St Louis, MO, USA) was pre-coated in 96-well plates as a substrate. A 50 μL aliquot of 10 μmol/L ATP solution diluted in kinase reaction buffer (50 mmol/L HEPES [pH 7.4], 50 mmol/L MgCl2, 0.5 mmol/L MnCl2, 0.2 mmol/L Na3VO4, and 1 mmol/L DTT) was added to each well; 1 μL of different compounds with indicated concentration diluted in 1% DMSO (v/v) (Sigma, St Louis, MO, USA) were then added to each reaction well. DMSO (1%, v/v) was used as the negative control. The kinase reaction was initiated by the addition of purified tyrosine kinase proteins (FGFR1, FGFR2, FGFR3, FGFR4, ALK, Bcr-Abl, EPH-A2, Flt-1, RET, c-Src, IGF1R, c-Met, EGFR, ErbB2) diluted in 49 μL of kinase reaction buffer solution. After incubation for 60 min at 37 °C, the plate was washed three times with phosphate-buffered saline (PBS) containing 0.1% Tween 20 (T-PBS). Anti-phosphotyrosine (PY99) antibody (100 μL; 1:500, diluted in 5 mg/mL BSA T-PBS) was then added. After a 30 min incubation at 37 °C, the plate was washed three times, and 100 μL horseradish peroxidase-conjugated goat anti-mouse IgG (1:2000, diluted in 5 mg/mL BSA T-PBS) was added. The plate was then incubated at 37 °C for 30 min and washed 3 times. A 100 μL aliquot of a solution containing 0.03% H2O2 and 2 mg/mL o-phenylenediamine in 0.1 mol/l citrate buffer (pH 5.5) was added. The reaction was terminated by the addition of 50 μL of 2 mol/l H2SO4 as the colour changed, and the plate was analysed using a multi-well spectrophotometer (SpectraMAX 190, Molecular Devices, Sunnyvale, CA, USA) at 490 nm. The inhibition rate (%) was calculated using the following equation: [1-(A490/A490 control)] × 100%. The IC50 values were calculated from the inhibition curves in two separate experiments.

SNU-16 cell = test: Cell proliferation assay (CCK-8 or MTT), SNU-16; type: cell-based, Human; conditions: Homo sapiens, SNU-16 is FGFR2-amplified cell type, 72 h
Protocol: Human gastric cancer cell line SNU-16 was purchased from American Type Culture Collection (ATCC, Manssas, VA, USA). All the cell lines were routinely maintained in complete medium according to the suppliers’ recommendations.
Cells were seeded in 96-well tissue culture plates. On the day when seeding, the cells were exposed to various concentrations of compounds and further cultured for 72 h at 37 °C. Finally, cell proliferation was determined using Cell Counting Kit (CCK-8) or the thiazolyl blue tetrazolium bromide (MTT, from Sigma-Aldrich, St. Louis, MO, USA) assay. The IC50 values were calculated by concentration–response curve fitting using a SoftMax pro-based four-parameter method.

FGFR2 = FGFR2 (Homo sapiens, UniProt P21802); test: ELISA kinase assay, FGFR2; type: biochemical; conditions: kinase selectivity panel
Protocol: DMSO (1%, v/v) was used as the negative control. […] Anti-phosphotyrosine (PY99) antibody (100 μL; 1:500, diluted in 5 mg/mL BSA T-PBS) was then added. […] The IC50 values were calculated from the inhibition curves in two separate experiments.

FGFR3 = FGFR3 (Homo sapiens, UniProt P22607); test: ELISA kinase assay, FGFR3; type: biochemical; conditions: kinase selectivity panel
Protocol: (§1) The kinase profiling of 9 u was conducted using Elisa kinase assay and the Eurofins Kinase Profiler Selectivity Testing Service.
(§2) Elisa kinase assay. The effects of the indicated compounds on the activities of receptor tyrosine kinases were determined using enzyme-linked immunosorbent assays (ELISAs) with purified recombinant proteins. Briefly, 20 μg/mL poly (Glu,Tyr)4:1 (Sigma, St Louis, MO, USA) was pre-coated in 96-well plates as a substrate. A 50 μL aliquot of 10 μmol/L ATP solution diluted in kinase reaction buffer (50 mmol/L HEPES [pH 7.4], 50 mmol/L MgCl2, 0.5 mmol/L MnCl2, 0.2 mmol/L Na3VO4, and 1 mmol/L DTT) was added to each well; 1 μL of different compounds with indicated concentration diluted in 1% DMSO (v/v) (Sigma, St Louis, MO, USA) were then added to each reaction well. DMSO (1%, v/v) was used as the negative control. The kinase reaction was initiated by the addition of purified tyrosine kinase proteins (FGFR1, FGFR2, FGFR3, FGFR4, ALK, Bcr-Abl, EPH-A2, Flt-1, RET, c-Src, IGF1R, c-Met, EGFR, ErbB2) diluted in 49 μL of kinase reaction buffer solution. […] The reaction was terminated by the addition of 50 μL of 2 mol/l H2SO4 as the colour changed, and the plate was analysed using a multi-well spectrophotometer (SpectraMAX 190, Molecular Devices, Sunnyvale, CA, USA) at 490 nm. […] The IC50 values were calculated from the inhibition curves in two separate experiments.

FGFR4 = FGFR4 (Homo sapiens, UniProt P22455); test: ELISA kinase assay, FGFR4; type: biochemical; conditions: kinase selectivity panel
Protocol: as §1, §2

ALK = ALK (Homo sapiens, UniProt Q9UM73); test: ELISA kinase assay, ALK; type: biochemical; conditions: kinase selectivity panel
Protocol: as §1, §2

Bcr-Abl = Bcr-Abl (Homo sapiens, UniProt P00519); test: ELISA kinase assay, Bcr-Abl; type: biochemical; conditions: kinase selectivity panel
Protocol: as §1, §2

EPH-A2 = EPH-A2 (Homo sapiens, UniProt P29317); test: ELISA kinase assay, EPH-A2; type: biochemical; conditions: kinase selectivity panel
Protocol: as §1, §2

Flt-1 = Flt-1 (Homo sapiens, UniProt P17948); test: ELISA kinase assay, Flt-1; type: biochemical; conditions: kinase selectivity panel
Protocol: as §1, §2

RET = RET (Homo sapiens, UniProt P07949); test: ELISA kinase assay, RET; type: biochemical; conditions: kinase selectivity panel
Protocol: as §1, §2

c-Src = c-Src (Homo sapiens, UniProt P12931); test: ELISA kinase assay, c-Src; type: biochemical; conditions: kinase selectivity panel
Protocol: as §1, §2

IGF1R = IGF1R (Homo sapiens, UniProt P08069); test: ELISA kinase assay, IGF1R; type: biochemical; conditions: kinase selectivity panel
Protocol: as §1, §2

c-Met = c-Met (Homo sapiens, UniProt P08581); test: ELISA kinase assay, c-Met; type: biochemical; conditions: kinase selectivity panel
Protocol: as §1, §2

EGFR = EGFR (Homo sapiens, UniProt P00533); test: ELISA kinase assay, EGFR; type: biochemical; conditions: kinase selectivity panel
Protocol: as §1, §2

ErbB2 = ErbB2 (Homo sapiens, UniProt P04626); test: ELISA kinase assay, ErbB2; type: biochemical; conditions: kinase selectivity panel
Protocol: as §1, §2

FGFR1, sequence (P11362 22-822): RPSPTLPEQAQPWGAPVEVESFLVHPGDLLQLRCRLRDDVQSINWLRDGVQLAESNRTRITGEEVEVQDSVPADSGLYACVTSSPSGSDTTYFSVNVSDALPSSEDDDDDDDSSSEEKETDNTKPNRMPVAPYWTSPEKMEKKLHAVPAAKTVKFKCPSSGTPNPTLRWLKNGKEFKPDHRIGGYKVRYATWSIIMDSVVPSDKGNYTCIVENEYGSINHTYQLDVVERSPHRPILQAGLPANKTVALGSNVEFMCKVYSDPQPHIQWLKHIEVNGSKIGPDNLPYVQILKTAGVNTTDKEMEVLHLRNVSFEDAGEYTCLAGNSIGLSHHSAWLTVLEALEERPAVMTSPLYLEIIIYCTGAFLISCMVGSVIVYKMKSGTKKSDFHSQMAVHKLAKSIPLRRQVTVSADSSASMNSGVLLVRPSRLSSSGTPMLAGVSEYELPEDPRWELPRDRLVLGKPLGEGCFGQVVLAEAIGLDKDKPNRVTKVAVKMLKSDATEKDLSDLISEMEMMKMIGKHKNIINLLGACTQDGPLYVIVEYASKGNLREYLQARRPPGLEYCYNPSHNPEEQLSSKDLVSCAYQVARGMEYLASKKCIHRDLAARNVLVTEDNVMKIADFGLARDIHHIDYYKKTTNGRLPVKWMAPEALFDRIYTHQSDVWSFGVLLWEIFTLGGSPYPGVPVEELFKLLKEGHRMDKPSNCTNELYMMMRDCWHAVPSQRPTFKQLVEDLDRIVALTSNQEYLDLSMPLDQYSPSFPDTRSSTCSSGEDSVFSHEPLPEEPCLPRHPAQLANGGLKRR
FGFR2, sequence (P21802 22-821): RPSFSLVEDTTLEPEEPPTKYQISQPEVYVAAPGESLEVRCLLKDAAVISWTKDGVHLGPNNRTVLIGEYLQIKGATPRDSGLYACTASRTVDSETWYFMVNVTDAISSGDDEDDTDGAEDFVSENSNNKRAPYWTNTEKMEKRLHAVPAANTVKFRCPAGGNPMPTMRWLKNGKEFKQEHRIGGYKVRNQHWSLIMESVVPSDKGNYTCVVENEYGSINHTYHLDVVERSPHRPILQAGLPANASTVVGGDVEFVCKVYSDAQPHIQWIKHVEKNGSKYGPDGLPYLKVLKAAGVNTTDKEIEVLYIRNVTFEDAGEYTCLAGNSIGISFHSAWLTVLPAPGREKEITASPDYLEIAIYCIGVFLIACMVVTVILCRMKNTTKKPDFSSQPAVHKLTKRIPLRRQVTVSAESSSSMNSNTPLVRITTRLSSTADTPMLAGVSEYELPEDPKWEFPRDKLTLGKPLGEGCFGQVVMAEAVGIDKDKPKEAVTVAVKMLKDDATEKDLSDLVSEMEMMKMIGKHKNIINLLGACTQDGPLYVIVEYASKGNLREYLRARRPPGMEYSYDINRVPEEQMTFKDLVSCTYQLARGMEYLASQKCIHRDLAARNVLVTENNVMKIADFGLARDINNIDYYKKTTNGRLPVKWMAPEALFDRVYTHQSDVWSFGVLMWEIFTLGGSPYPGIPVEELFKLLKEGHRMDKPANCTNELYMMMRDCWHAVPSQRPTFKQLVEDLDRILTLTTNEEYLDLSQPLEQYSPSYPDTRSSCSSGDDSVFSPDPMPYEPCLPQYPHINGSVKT
IGF1R, sequence (P08069 31-1367, species assumed): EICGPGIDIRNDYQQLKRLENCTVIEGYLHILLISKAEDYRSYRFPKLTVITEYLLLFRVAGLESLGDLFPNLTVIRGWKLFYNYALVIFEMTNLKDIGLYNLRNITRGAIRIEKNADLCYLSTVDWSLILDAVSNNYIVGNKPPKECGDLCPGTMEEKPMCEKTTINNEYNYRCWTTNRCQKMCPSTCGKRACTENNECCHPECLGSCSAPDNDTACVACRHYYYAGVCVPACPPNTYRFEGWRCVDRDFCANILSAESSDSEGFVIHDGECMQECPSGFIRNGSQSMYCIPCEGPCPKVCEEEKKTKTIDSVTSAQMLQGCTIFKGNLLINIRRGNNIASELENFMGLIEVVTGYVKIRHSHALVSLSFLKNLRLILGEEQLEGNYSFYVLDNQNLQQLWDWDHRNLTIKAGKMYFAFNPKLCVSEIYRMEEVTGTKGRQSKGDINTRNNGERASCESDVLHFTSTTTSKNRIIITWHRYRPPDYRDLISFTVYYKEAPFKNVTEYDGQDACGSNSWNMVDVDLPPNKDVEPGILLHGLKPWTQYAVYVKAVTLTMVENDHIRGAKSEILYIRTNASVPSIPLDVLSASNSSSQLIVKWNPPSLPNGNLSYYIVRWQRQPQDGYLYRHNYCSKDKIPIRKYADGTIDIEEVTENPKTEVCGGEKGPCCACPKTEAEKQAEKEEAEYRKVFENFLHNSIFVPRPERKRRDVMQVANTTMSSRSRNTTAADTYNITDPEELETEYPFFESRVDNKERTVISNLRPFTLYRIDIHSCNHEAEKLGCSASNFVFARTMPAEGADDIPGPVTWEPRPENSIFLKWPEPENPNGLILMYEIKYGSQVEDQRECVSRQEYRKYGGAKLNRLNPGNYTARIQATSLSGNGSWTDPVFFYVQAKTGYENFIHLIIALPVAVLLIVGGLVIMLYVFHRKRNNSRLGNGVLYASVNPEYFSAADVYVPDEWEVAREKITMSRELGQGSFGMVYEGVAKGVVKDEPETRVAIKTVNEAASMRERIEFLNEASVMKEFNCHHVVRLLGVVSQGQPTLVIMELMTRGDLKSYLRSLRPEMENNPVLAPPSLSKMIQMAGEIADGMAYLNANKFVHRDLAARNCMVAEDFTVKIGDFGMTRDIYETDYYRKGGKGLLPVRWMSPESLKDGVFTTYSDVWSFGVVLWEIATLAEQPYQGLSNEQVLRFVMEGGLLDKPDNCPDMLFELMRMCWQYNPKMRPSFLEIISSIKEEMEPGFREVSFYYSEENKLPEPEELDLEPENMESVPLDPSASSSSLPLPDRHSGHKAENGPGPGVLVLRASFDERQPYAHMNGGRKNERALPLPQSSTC
ALK, sequence (Q9UM73 19-1620, species assumed): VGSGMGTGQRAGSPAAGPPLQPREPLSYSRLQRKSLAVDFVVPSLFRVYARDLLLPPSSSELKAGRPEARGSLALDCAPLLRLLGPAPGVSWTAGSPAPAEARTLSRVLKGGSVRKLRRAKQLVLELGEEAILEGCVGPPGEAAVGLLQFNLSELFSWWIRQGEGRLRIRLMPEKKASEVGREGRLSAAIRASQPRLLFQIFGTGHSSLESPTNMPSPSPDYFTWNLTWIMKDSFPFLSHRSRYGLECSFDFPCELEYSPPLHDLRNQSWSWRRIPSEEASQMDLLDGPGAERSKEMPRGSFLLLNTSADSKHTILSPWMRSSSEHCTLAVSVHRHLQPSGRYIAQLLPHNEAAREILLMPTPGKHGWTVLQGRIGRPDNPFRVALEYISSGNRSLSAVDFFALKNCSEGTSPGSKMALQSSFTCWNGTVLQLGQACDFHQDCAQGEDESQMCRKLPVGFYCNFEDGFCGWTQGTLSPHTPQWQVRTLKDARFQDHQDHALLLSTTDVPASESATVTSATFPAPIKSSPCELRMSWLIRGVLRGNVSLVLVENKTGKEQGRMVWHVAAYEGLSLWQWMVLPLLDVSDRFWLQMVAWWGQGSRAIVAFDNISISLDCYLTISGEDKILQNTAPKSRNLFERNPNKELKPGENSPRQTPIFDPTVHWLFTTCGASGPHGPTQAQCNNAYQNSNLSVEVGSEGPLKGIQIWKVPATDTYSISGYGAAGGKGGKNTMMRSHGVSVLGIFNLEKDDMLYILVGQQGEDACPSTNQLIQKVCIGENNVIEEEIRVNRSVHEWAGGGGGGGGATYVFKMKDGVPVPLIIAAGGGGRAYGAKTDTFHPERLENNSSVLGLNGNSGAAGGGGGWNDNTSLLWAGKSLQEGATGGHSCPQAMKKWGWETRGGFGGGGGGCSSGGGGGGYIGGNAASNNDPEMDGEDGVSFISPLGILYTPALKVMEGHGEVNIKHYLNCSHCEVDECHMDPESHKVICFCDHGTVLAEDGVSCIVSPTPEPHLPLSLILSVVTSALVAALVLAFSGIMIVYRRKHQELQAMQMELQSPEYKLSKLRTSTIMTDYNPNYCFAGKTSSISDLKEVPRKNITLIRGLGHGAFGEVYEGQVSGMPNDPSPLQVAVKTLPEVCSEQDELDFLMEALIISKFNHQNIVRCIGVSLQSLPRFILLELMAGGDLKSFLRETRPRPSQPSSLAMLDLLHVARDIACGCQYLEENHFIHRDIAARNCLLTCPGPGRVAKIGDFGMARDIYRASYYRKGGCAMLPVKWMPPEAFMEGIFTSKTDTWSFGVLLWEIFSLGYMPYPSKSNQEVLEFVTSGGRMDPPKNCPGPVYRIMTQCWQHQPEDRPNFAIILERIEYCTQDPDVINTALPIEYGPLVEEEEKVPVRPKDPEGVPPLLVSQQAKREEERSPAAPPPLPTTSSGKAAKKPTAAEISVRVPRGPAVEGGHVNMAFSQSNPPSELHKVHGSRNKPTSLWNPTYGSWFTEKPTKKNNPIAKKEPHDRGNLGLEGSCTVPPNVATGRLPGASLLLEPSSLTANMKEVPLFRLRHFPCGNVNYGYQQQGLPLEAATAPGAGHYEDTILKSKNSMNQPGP
c-Src, sequence (P12931 whole entry, species assumed): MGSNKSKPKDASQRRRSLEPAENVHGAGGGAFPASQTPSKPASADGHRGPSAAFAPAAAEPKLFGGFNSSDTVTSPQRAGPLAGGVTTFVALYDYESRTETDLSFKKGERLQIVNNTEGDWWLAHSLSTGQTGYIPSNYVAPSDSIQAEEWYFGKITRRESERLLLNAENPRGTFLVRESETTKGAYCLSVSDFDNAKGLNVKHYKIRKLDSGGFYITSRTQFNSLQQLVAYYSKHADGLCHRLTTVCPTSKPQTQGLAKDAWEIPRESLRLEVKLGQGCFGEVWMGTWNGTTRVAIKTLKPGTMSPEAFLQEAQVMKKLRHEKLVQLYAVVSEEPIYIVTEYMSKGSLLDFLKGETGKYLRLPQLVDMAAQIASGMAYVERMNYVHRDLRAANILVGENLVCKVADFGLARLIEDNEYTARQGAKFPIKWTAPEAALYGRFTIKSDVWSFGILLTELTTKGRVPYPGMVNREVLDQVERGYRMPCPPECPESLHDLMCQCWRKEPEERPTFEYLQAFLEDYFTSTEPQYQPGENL

| SMILES | IC50 (FGFR1) | melting point | IC50 (SNU-16 cell; Table 2) | further results |
| --- | --- | --- | --- | --- |
| COc1cccc(-c2ccc3nc(NC(=O)c4ccc(N5CCN(C)CC5)cc4)sc3c2)c1F [12d, N-(6–(2-fluoro-3-methoxyphenyl)benzo[d]thiazol-2-yl)-4–(4-methylpiperazin-1-yl)benzamide] | > 1000 nM | 232.5 to 235.2 °C | – | IC50 (SNU-16 cell; Table 1): > 5000 nM |
| CCN1CCN(c2ccc(C(=O)Nc3n[nH]c4cc(-c5ccn(C)n5)ccc34)cc2)CC1 [9t, 4–(4-ethylpiperazin-1-yl)-N-(6–(1-methyl-1H-pyrazol-3-yl)-1H-indazol-3-yl) benzamide] | > 1000 nM | 221.6 to 224.2 °C | > 5000 nM | – |
| CCN1CCN(c2ccc(C(=O)Nc3n[nH]c4cc(-c5cc(Cl)cc(Cl)c5)ccc34)cc2)CC1 [9k, N-(6–(3,5-dichlorophenyl)-1H-indazol-3-yl)-4–(4-ethylpiperazin-1-yl)benzamide] | 67.2 nM | 226.4 to 228.7 °C | 1200 nM | – |
| CCN1CCN(c2ccc(C(=O)Nc3n[nH]c4cc(-c5cccc(C(=O)OC)c5)ccc34)cc2)CC1 [9h, methyl 3–(3-(4–(4-ethylpiperazin-1-yl)benzamido)-1H-indazol-6-yl)benzoate] | 77.7 nM | 228.7 to 233.4 °C | 757 nM | – |

Stronger by IC50 (FGFR1), values ahead:

| IC50 (FGFR1) | melting point | IC50 (SNU-16 cell; Table 2) | SMILES | further results |
| --- | --- | --- | --- | --- |
| 3.3 nM | 223.8 to 227.4 °C | – | COc1cc(F)cc(-c2ccc3c(NC(=O)c4ccc(N5CCC(N(C)C)CC5)cc4)n[nH]c3c2)c1 [9u, 4–(4-(dimethylamino)piperidin-1-yl)-N-(6–(3-fluoro-5-methoxyphenyl)-1H-indazol-3-yl)benzamide] | enhancement of FGFR1 inhibitory activity (FGFR1; compared with 9o): 1.5 fold; IC50 (SNU-16 cell; Table 3): 468 nM; IC50 (FGFR2): 5.2 nM; IC50 (FGFR3): 12.2 nM; IC50 (FGFR4): > 1000 nM; IC50 (ALK): > 1000 nM; IC50 (Bcr-Abl): > 1000 nM; IC50 (EPH-A2): > 1000 nM; IC50 (Flt-1): > 100 nM; IC50 (RET): > 100 nM; IC50 (c-Src): > 100 nM; IC50 (IGF1R): > 1000 nM; IC50 (c-Met): > 1000 nM; IC50 (EGFR): > 1000 nM; IC50 (ErbB2): > 1000 nM |
| 50.6 nM | 231.5 to 234.6 °C | 780 nM | CCN1CCN(c2ccc(C(=O)Nc3n[nH]c4cc(-c5cc(Cl)ccc5Cl)ccc34)cc2)CC1 [9l, N-(6–(2,5-dichlorophenyl)-1H-indazol-3-yl)-4–(4-ethylpiperazin-1-yl)benzamide] | – |
| 41.7 nM | 235.7 to 239.2 °C | 856 nM | CCN1CCN(c2ccc(C(=O)Nc3n[nH]c4cc(-c5c(C)cccc5C)ccc34)cc2)CC1 [9q, N-(6–(2,6-dimethylphenyl)-1H-indazol-3-yl)-4–(4-ethylpiperazin-1-yl)benzamide] | – |
| 10.2 nM | 237.4 to 241.6 °C | – | COc1cc(F)cc(-c2ccc3c(NC(=O)c4ccc(N5CCN(C)CC5)cc4)n[nH]c3c2)c1 [9y, N-(6–(3-fluoro-5-methoxyphenyl)-1H-indazol-3-yl)-4–(4-methylpiperazin-1-yl)benzamide] | IC50 (SNU-16 cell; Table 3): 639 nM |
